Data reported in ChEMBL document CHEMBL1128111, “Synthesis and biological activity of a series of 4-aryl substituted benz[b]azepines: Antagonists at the strychnine-insensitive glycine site” (Bioorg Med Chem Lett, 1995).
The source made the active and inactive calls. The rule behind the calls is not given here.

target: T1, Glutamate NMDA receptor (Rattus norvegicus) (UniProt P35439+Q00959+Q00960+Q00961+Q62645+Q8VHN2+Q9R1M7); experiment: The compound was tested in vivo for its effect on the NMDA receptor complex following administration by iv infusion in red nucleus assay; Inactive; assay type: organism-based

Row | Activity | SMILES
1 | inactive | O=c1[nH]c2cc(Cl)ccc2c(O)c(-c2cccnc2)c1=O

target: T1, Glutamate NMDA receptor (Rattus norvegicus); experiment: The compound was tested in vivo for its effect on the NMDA receptor complex following administration by iv infusion in red nucleus assay; assay type: organism-based; design: unit not given here

Row | Activity | SMILES
2 | 5 | O=c1[nH]c2cc(Cl)ccc2c(O)c(-c2ccco2)c1=O
3 | 9.9 | COc1ccc(-c2c(O)c(=O)[nH]c3cc(Cl)ccc3c2=O)cc1
4 | 2.8 | COc1cccnc1-c1c(O)c(=O)[nH]c2cc(Cl)ccc2c1=O
5 | 9.4 | O=c1[nH]c2cc(Cl)ccc2c(O)c(-c2ccccc2)c1=O
6 | 5.6 | O=c1[nH]c2cc(Cl)ccc2c(O)c(-c2cccs2)c1=O
7 | 1.7 | O=c1[nH]c2cc(Cl)ccc2c(O)c(-c2ccccn2)c1=O
